# Assay results taken from the supplement of paper PMC10307832.
# Columns and labels:
# Assay in all cases: relative viability (nuclei count vs DMSO), 5 days (fraction); higher = more cells survive
# HCC-827 = tested on: HCC-827
# Method in brief: (§1)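 Relative viability was taken as the ratio of nuclei in treated wells to nuclei in vehicle wells. Lung cancer cell lines in 1536-well plates received compounds by pin tool one day after seeding, either one drug alone or a fixed anchor-drug dose plus five library-drug doses (not always all listed) in √10 steps. Nuclei were counted on 4× images after 5 days of treatment, and values are medians of duplicate plates.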
# HCC-366 = tested on: HCC-366
# Method in brief: as §1
# A-427 = tested on: A-427
# Method in brief: as §1
# SW 1573 = tested on: SW 1573
# Method in brief: as §1
# NCI-H1734 = tested on: NCI-H1734
# Method in brief: as §1
# SK-LU-1 = tested on: SK-LU-1
# Method in brief: as §1
# LC-2-ad = tested on: LC-2-ad
# Method in brief: as §1
# NCI-H2347 = tested on: NCI-H2347
# Method in brief: as §1
# NCI-H1975 = tested on: NCI-H1975
# Method in brief: as §1
# NCI-H1993 = tested on: NCI-H1993
# Method in brief: as §1
# SK-MES-1 = tested on: SK-MES-1
# Method in brief: as §1
# NCI-H1355 = tested on: NCI-H1355
# Method in brief: as §1
# NCI-H1915 = tested on: NCI-H1915
# Method in brief: as §1
# NCI-H2228 = tested on: NCI-H2228
# Method in brief: as §1
# NCI-H1792 = tested on: NCI-H1792
# Method in brief: as §1
# NCI-H2170 = tested on: NCI-H2170
# Method in brief: as §1
# RERF-LC-KJ = tested on: RERF-LC-KJ
# Method in brief: as §1
# LCLC-103H = tested on: LCLC-103H
# Method in brief: as §1
# NCI-H23 = tested on: NCI-H23
# Method in brief: as §1
# NCI-H650 = tested on: NCI-H650
# Method in brief: as §1
# NCI-H1755 = tested on: NCI-H1755
# Method in brief: as §1
# UMC-11 = tested on: UMC-11
# Method in brief: as §1
# NCI-H2342 = tested on: NCI-H2342
# Method in brief: as §1
compound,measurement,setting,value
Cc1cn(-c2cc(NC(=O)c3ccc(C)c(Nc4nccc(-c5cccnc5)n4)c3)cc(C(F)(F)F)c2)cn1 [Nilotinib] + O=C(c1cc(Cc2n[nH]c(=O)c3ccccc23)ccc1F)N1CCN(C(=O)C2CC2)CC1 [Olaparib] (partner 8 µM),relative viability,HCC-827; first compound 0.001 µM,0.637
same,relative viability,HCC-827; first compound 0.003162 µM,0.741
same,relative viability,HCC-827; first compound 0.03162 µM,0.49
same,relative viability,HCC-827; first compound 0.1 µM,0.689
same,relative viability,HCC-366; first compound 0.001 µM,0.272
same,relative viability,HCC-366; first compound 0.003162 µM,0.327
same,relative viability,HCC-366; first compound 0.01 µM,0.339
same,relative viability,HCC-366; first compound 0.03162 µM,0.281
same,relative viability,HCC-366; first compound 0.1 µM,0.281
same,relative viability,A-427; first compound 0.001 µM,0.76
same,relative viability,A-427; first compound 0.003162 µM,0.874
same,relative viability,A-427; first compound 0.01 µM,0.86
same,relative viability,A-427; first compound 0.03162 µM,0.804
same,relative viability,A-427; first compound 0.1 µM,0.936
same,relative viability,SW 1573; first compound 0.001 µM,0.494
same,relative viability,SW 1573; first compound 0.003162 µM,0.614
same,relative viability,SW 1573; first compound 0.01 µM,0.662
same,relative viability,SW 1573; first compound 0.03162 µM,0.364
same,relative viability,SW 1573; first compound 0.1 µM,0.423
same,relative viability,NCI-H1734; first compound 0.001 µM,0.576
same,relative viability,NCI-H1734; first compound 0.003162 µM,0.656
same,relative viability,NCI-H1734; first compound 0.01 µM,0.689
same,relative viability,NCI-H1734; first compound 0.03162 µM,0.543
same,relative viability,NCI-H1734; first compound 0.1 µM,0.497
same,relative viability,SK-LU-1; first compound 0.001 µM,0.408
same,relative viability,SK-LU-1; first compound 0.003162 µM,0.469
same,relative viability,SK-LU-1; first compound 0.01 µM,0.541
same,relative viability,SK-LU-1; first compound 0.03162 µM,0.354
same,relative viability,SK-LU-1; first compound 0.1 µM,0.444
same,relative viability,LC-2-ad; first compound 0.001 µM,0.686
same,relative viability,LC-2-ad; first compound 0.003162 µM,0.755
same,relative viability,LC-2-ad; first compound 0.01 µM,0.689
same,relative viability,LC-2-ad; first compound 0.03162 µM,0.874
same,relative viability,LC-2-ad; first compound 0.1 µM,0.594
same,relative viability,NCI-H2347; first compound 0.001 µM,0.559
same,relative viability,NCI-H2347; first compound 0.003162 µM,0.664
same,relative viability,NCI-H2347; first compound 0.01 µM,0.633
same,relative viability,NCI-H2347; first compound 0.03162 µM,0.57
same,relative viability,NCI-H2347; first compound 0.1 µM,0.493
same,relative viability,NCI-H1975; first compound 0.001 µM,0.553
same,relative viability,NCI-H1975; first compound 0.003162 µM,0.809
same,relative viability,NCI-H1975; first compound 0.01 µM,0.786
same,relative viability,NCI-H1975; first compound 0.03162 µM,0.491
same,relative viability,NCI-H1975; first compound 0.1 µM,0.63
same,relative viability,NCI-H1993; first compound 0.001 µM,0.957
same,relative viability,NCI-H1993; first compound 0.003162 µM,1.1
same,relative viability,NCI-H1993; first compound 0.01 µM,1.75
same,relative viability,NCI-H1993; first compound 0.03162 µM,1.01
same,relative viability,NCI-H1993; first compound 0.1 µM,1.23
same,relative viability,SK-MES-1; first compound 0.001 µM,0.611
same,relative viability,SK-MES-1; first compound 0.003162 µM,0.696
same,relative viability,SK-MES-1; first compound 0.01 µM,0.778
same,relative viability,SK-MES-1; first compound 0.03162 µM,0.573
same,relative viability,SK-MES-1; first compound 0.1 µM,0.432
same,relative viability,NCI-H1355; first compound 0.001 µM,0.748
same,relative viability,NCI-H1355; first compound 0.003162 µM,0.816
same,relative viability,NCI-H1355; first compound 0.01 µM,0.737
same,relative viability,NCI-H1355; first compound 0.03162 µM,0.785
same,relative viability,NCI-H1355; first compound 0.1 µM,0.763
same,relative viability,NCI-H1915; first compound 0.003162 µM,0.267
same,relative viability,NCI-H1915; first compound 0.01 µM,0.244
same,relative viability,NCI-H1915; first compound 0.03162 µM,0.255
same,relative viability,NCI-H1915; first compound 0.1 µM,0.187
same,relative viability,NCI-H2228; first compound 0.001 µM,0.459
same,relative viability,NCI-H2228; first compound 0.003162 µM,0.584
same,relative viability,NCI-H2228; first compound 0.01 µM,0.76
same,relative viability,NCI-H2228; first compound 0.03162 µM,0.384
same,relative viability,NCI-H2228; first compound 0.1 µM,0.835
same,relative viability,NCI-H1792; first compound 0.001 µM,0.312
same,relative viability,NCI-H1792; first compound 0.003162 µM,0.535
same,relative viability,NCI-H1792; first compound 0.01 µM,0.456
same,relative viability,NCI-H1792; first compound 0.03162 µM,0.258
same,relative viability,NCI-H1792; first compound 0.1 µM,0.319
same,relative viability,NCI-H2170; first compound 0.001 µM,0.597
same,relative viability,NCI-H2170; first compound 0.003162 µM,0.662
same,relative viability,NCI-H2170; first compound 0.01 µM,0.647
same,relative viability,NCI-H2170; first compound 0.03162 µM,0.574
same,relative viability,NCI-H2170; first compound 0.1 µM,0.614
same,relative viability,RERF-LC-KJ; first compound 0.001 µM,0.816
same,relative viability,RERF-LC-KJ; first compound 0.003162 µM,1.03
same,relative viability,RERF-LC-KJ; first compound 0.01 µM,0.976
same,relative viability,RERF-LC-KJ; first compound 0.03162 µM,0.826
same,relative viability,RERF-LC-KJ; first compound 0.1 µM,0.892
same,relative viability,LCLC-103H; first compound 0.001 µM,0.761
same,relative viability,LCLC-103H; first compound 0.003162 µM,0.903
same,relative viability,LCLC-103H; first compound 0.01 µM,0.969
same,relative viability,LCLC-103H; first compound 0.03162 µM,0.749
same,relative viability,LCLC-103H; first compound 0.1 µM,0.8
same,relative viability,NCI-H23; first compound 0.001 µM,0.353
same,relative viability,NCI-H23; first compound 0.003162 µM,0.302
same,relative viability,NCI-H23; first compound 0.01 µM,0.321
same,relative viability,NCI-H23; first compound 0.03162 µM,0.295
same,relative viability,NCI-H23; first compound 0.1 µM,0.331
same,relative viability,NCI-H650; first compound 0.001 µM,0.357
same,relative viability,NCI-H650; first compound 0.003162 µM,0.432
same,relative viability,NCI-H650; first compound 0.01 µM,0.454
same,relative viability,NCI-H650; first compound 0.03162 µM,0.36
same,relative viability,NCI-H650; first compound 0.1 µM,0.344
same,relative viability,NCI-H1755; first compound 0.001 µM,0.839
same,relative viability,NCI-H1755; first compound 0.003162 µM,1.02
same,relative viability,NCI-H1755; first compound 0.01 µM,0.953
same,relative viability,NCI-H1755; first compound 0.03162 µM,0.901
same,relative viability,NCI-H1755; first compound 0.1 µM,0.784
same,relative viability,UMC-11; first compound 0.001 µM,0.39
same,relative viability,UMC-11; first compound 0.003162 µM,0.384
same,relative viability,UMC-11; first compound 0.01 µM,0.337
same,relative viability,UMC-11; first compound 0.03162 µM,0.341
same,relative viability,UMC-11; first compound 0.1 µM,0.279
same,relative viability,NCI-H2342; first compound 0.001 µM,0.399
same,relative viability,NCI-H2342; first compound 0.003162 µM,0.457
same,relative viability,NCI-H2342; first compound 0.01 µM,0.464
same,relative viability,NCI-H2342; first compound 0.03162 µM,0.338
same,relative viability,NCI-H2342; first compound 0.1 µM,0.418
